Results as given in patent US9290474B2, “Methods for making and using novel semi-synthetic small molecules for the treatment parasitic disease” (The Regents of the University of California, priority 2011, dated 2016).

System: T. brucei brucei
Assay: Screening against T. brucei (antiparasitic activity)
Assay type: cell-based, Trypanosoma brucei
Conditions: initial screening

## CC1(C)C=CC(=O)[C@@]2(C)OOC3C[C@]12CCC3(O)CO (stereo partly shown) [Merulin C, merulin C]
  activity against T. brucei brucei: 0.8 µM
